# Measured values: patent US6355799B1, “Substituted benzene compounds, process for their preparation, and herbicidal and defoliant compositions containing them” (ISK Americas Incorporated, priority 1997, dated 2002)
# Experiments:
# Assay type in all cases: in vivo
# [1] = system: field corn (Zea mays L., var. Dekalb 535, CORN); assay: Post-emerge test, crop safety; settings: post-emerge, 14 days after application, rating scale 0-100
# How it was run: (§1)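 Compounds in acetone were track-sprayed at 15-1000 g ai/ha (187 l/ha) on sandy loam pots: pre-emerge one day after seeding, post-emerge at 2-3 leaf stage with 0.25% v/v non-ionic surfactant. Phytotoxicity was rated 14 days later on a 0 (no damage) to 100 (complete death) scale.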
# [2] = system: upland rice (Oryza sp., var. Tebonnet, RICE); assay: Post-emerge test, crop safety; settings: post-emerge, 14 days after application, rating scale 0-100
# How it was run: as §1
# [3] = system: lambsquarters (Chenopodium album, CHEAL); assay: Post-emerge test, greenhouse herbicide activity screening; settings: post-emerge, 14 days after application, rating scale 0-100
# How it was run: (§2)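 Rating: 0–100 visual injury, 14 DAA. Application: acetone, 187 l/ha, 15–1000 g ai/ha, flat-fan track sprayer with nozzle 40–45 cm above soil or canopy. Post-emerge runs used 0.25% v/v surfactant on 2–3 leaf plants.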
# [4] = system: large crabgrass (Digitaria sanguinalis, DIGSA); assay: as above; settings: post-emerge, 14 days after application, rating scale 0-100
# How it was run: as §2
# [5] = system: barnyardgrass (Echinochloa crus-galli, ECHCG); assay: as above; settings: post-emerge, 14 days after application, rating scale 0-100
# How it was run: as §2
# [6] = system: green foxtail (Setaria viridis, SETVI); assay: as above; settings: post-emerge, 14 days after application, rating scale 0-100
# How it was run: as §2
# [7] = system: johnsongrass (Sorghum halepense, SORHA); assay: as above; settings: post-emerge, 14 days after application, rating scale 0-100
# How it was run: as §2
# [8] = system: ivyleaf morningglory (Ipomoea hederacea, IPOHE); assay: as above; settings: post-emerge, 14 days after application, rating scale 0-100
# How it was run: as §2
# [9] = system: redroot pigweed (Amaranthus retroflexus, AMARE); assay: as above; settings: post-emerge, 14 days after application
# How it was run: as §2
# [10] = system: velvetleaf (Abutilon theophrasti, ABUTH); assay: as above; settings: post-emerge, 14 days after application, rating scale 0-100
# How it was run: as §2
# [11] = system: sicklepod (Cassia obtusifolia, CASOB); assay: as above; settings: post-emerge, 14 days after application, rating scale 0-100
# How it was run: as §2
# [12] = system: redroot pigweed (Amaranthus retroflexus, AMARE); assay: Pre-emerge test, greenhouse herbicide activity screening; settings: phytotoxicity rating 0-100, 14 days after application
# How it was run: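 Herbicidal damage is scored 0 (none) to 100 (complete plant death) two weeks after a simulated field spray. Rates span 15–1000 g ai/ha, delivered in acetone at 187 l/ha. For post-emergence treatments, plants have 2–3 leaves and the spray carries 0.25% v/v non-ionic surfactant.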
# [13] = system: lambsquarters (Chenopodium album, CHEAL); assay: as above; settings: phytotoxicity rating 0-100, 14 days after application
# How it was run: as §1
# [14] = system: large crabgrass (Digitaria sanguinalis, DIGSA); assay: as above; settings: phytotoxicity rating 0-100, 14 days after application
# How it was run: as §1
# [15] = system: barnyardgrass (Echinochloa crus-galli, ECHCG); assay: as above; settings: phytotoxicity rating 0-100, 14 days after application
# How it was run: as §1
# [16] = system: green foxtail (Setaria viridis, SETVI); assay: as above; settings: phytotoxicity rating 0-100, 14 days after application
# How it was run: as §1
# [17] = system: johnsongrass (Sorghum halepense, SORHA); assay: as above; settings: phytotoxicity rating 0-100, 14 days after application
# How it was run: as §1
# [18] = system: ivyleaf morningglory (Ipomoea hederacea, IPOHE); assay: as above; settings: phytotoxicity rating 0-100, 14 days after application
# How it was run: as §1
# [19] = system: velvetleaf (Abutilon theophrasti, ABUTH); assay: as above; settings: phytotoxicity rating 0-100, 14 days after application
# How it was run: as §1
# [20] = system: sicklepod (Cassia obtusifolia, CASOB); assay: as above; settings: phytotoxicity rating 0-100, 14 days after application
# How it was run: as §1
# [21] = system: field corn (Zea mays L., var. Dekalb 535, CORN); assay: Pre-emerge test, crop safety; settings: crop damage rating 0-100, 14 days after application
# How it was run: (§3)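 Fourteen days after spraying, crop and weed injury was graded visually from 0, no effect, to 100, every plant dead. Test substances were dissolved in acetone and applied at 15–1000 g ai/ha with a flat-fan nozzle. Application was either pre-emergence, one day after sowing, or post-emergence at the 2–3 leaf stage.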
# [22] = system: upland rice (Oryza sp., var. Tebonnet, RICE); assay: Pre-emerge test, crop safety; settings: crop damage rating 0-100, 14 days after application
# How it was run: as §3
# [23] = 63 g ai/ha, rating scale 0-100 (0 no damage, 100 complete death)
# [24] = 250 g ai/ha, rating scale 0-100
smiles,measurement,setting,value
COc1c(Cl)cc(F)c(-n2c(=O)cc(C(F)(F)F)n(C)c2=O)c1NC(=O)OCc1ccc(F)cc1 [4-7],phytotoxicity rating CORN (crop damage),[1]; 63 g ai/ha,90
same,phytotoxicity rating CORN (crop damage),[1]; 250 g ai/ha,100
same,phytotoxicity rating RICE (crop damage),[2]; 63 g ai/ha,65
same,phytotoxicity rating RICE (crop damage),[2]; 250 g ai/ha,90
same,phytotoxicity rating CHEAL,[3]; 63 g ai/ha,100
same,phytotoxicity rating CHEAL,[3]; 250 g ai/ha,100
same,phytotoxicity rating DIGSA,[4]; 63 g ai/ha,40
same,phytotoxicity rating DIGSA,[4]; 250 g ai/ha,90
same,phytotoxicity rating ECHCG,[5]; 63 g ai/ha,50
same,phytotoxicity rating ECHCG,[5]; 250 g ai/ha,100
same,phytotoxicity rating SETVI,[6]; 63 g ai/ha,70
same,phytotoxicity rating SETVI,[6]; 250 g ai/ha,100
same,phytotoxicity rating SORHA,[7]; 63 g ai/ha,90
same,phytotoxicity rating SORHA,[7]; 250 g ai/ha,90
same,phytotoxicity rating IPOHE,[8]; 63 g ai/ha,100
same,phytotoxicity rating IPOHE,[8]; 250 g ai/ha,100
same,phytotoxicity rating AMARE,[9]; [23],100
same,phytotoxicity rating AMARE,[9]; [24],100
same,phytotoxicity rating ABUTH,[10]; 63 g ai/ha,100
same,phytotoxicity rating ABUTH,[10]; 250 g ai/ha,100
same,phytotoxicity rating CASOB,[11]; 63 g ai/ha,100
same,phytotoxicity rating CASOB,[11]; 250 g ai/ha,100
same,Pre-emerge Herbicidal Activity AMARE,[12]; 63 g ai/ha,100
same,Pre-emerge Herbicidal Activity AMARE,[12]; 250 g ai/ha,100
same,Pre-emerge Herbicidal Activity CHEAL,[13]; 63 g ai/ha,100
same,Pre-emerge Herbicidal Activity CHEAL,[13]; 250 g ai/ha,100
same,Pre-emerge Herbicidal Activity DIGSA,[14]; 63 g ai/ha,100
same,Pre-emerge Herbicidal Activity DIGSA,[14]; 250 g ai/ha,100
same,Pre-emerge Herbicidal Activity ECHCG,[15]; 63 g ai/ha,70
same,Pre-emerge Herbicidal Activity ECHCG,[15]; 250 g ai/ha,90
same,Pre-emerge Herbicidal Activity SETVI,[16]; 63 g ai/ha,100
same,Pre-emerge Herbicidal Activity SETVI,[16]; 250 g ai/ha,100
same,Pre-emerge Herbicidal Activity SORHA,[17]; 63 g ai/ha,80
same,Pre-emerge Herbicidal Activity SORHA,[17]; 250 g ai/ha,95
same,Pre-emerge Herbicidal Activity IPOHE,[18]; 63 g ai/ha,80
same,Pre-emerge Herbicidal Activity IPOHE,[18]; 250 g ai/ha,100
same,Pre-emerge Herbicidal Activity ABUTH,[19]; 63 g ai/ha,100
same,Pre-emerge Herbicidal Activity ABUTH,[19]; 250 g ai/ha,100
same,Pre-emerge Herbicidal Activity CASOB,[20]; 63 g ai/ha,70
same,Pre-emerge Herbicidal Activity CASOB,[20]; 250 g ai/ha,100
same,Pre-emerge Herbicidal Activity CORN,[21]; 63 g ai/ha,60
same,Pre-emerge Herbicidal Activity CORN,[21]; 250 g ai/ha,95
same,Pre-emerge Herbicidal Activity RICE,[22]; 63 g ai/ha,70
same,Pre-emerge Herbicidal Activity RICE,[22]; 250 g ai/ha,100
COc1c(Cl)cc(F)c(-n2c(=O)cc(C(F)(F)F)n(C)c2=O)c1NC(=O)OCc1ccc(F)c(F)c1 [4-30],phytotoxicity rating CORN (crop damage),[1]; 63 g ai/ha,90
same,phytotoxicity rating CORN (crop damage),[1]; 250 g ai/ha,99
same,phytotoxicity rating RICE (crop damage),[2]; 63 g ai/ha,80
same,phytotoxicity rating RICE (crop damage),[2]; 250 g ai/ha,85
same,phytotoxicity rating CHEAL,[3]; 63 g ai/ha,100
same,phytotoxicity rating CHEAL,[3]; 250 g ai/ha,100
same,phytotoxicity rating DIGSA,[4]; 63 g ai/ha,50
same,phytotoxicity rating DIGSA,[4]; 250 g ai/ha,85
same,phytotoxicity rating ECHCG,[5]; 63 g ai/ha,50
same,phytotoxicity rating ECHCG,[5]; 250 g ai/ha,90
same,phytotoxicity rating SETVI,[6]; 63 g ai/ha,80
same,phytotoxicity rating SETVI,[6]; 250 g ai/ha,100
same,phytotoxicity rating SORHA,[7]; 63 g ai/ha,50
same,phytotoxicity rating SORHA,[7]; 250 g ai/ha,100
same,phytotoxicity rating IPOHE,[8]; 63 g ai/ha,100
same,phytotoxicity rating IPOHE,[8]; 250 g ai/ha,100
same,phytotoxicity rating AMARE,[9]; [23],100
same,phytotoxicity rating AMARE,[9]; [24],100
same,phytotoxicity rating ABUTH,[10]; 63 g ai/ha,100
same,phytotoxicity rating ABUTH,[10]; 250 g ai/ha,100
same,phytotoxicity rating CASOB,[11]; 63 g ai/ha,100
same,phytotoxicity rating CASOB,[11]; 250 g ai/ha,100
same,Pre-emerge Herbicidal Activity AMARE,[12]; 63 g ai/ha,100
same,Pre-emerge Herbicidal Activity AMARE,[12]; 250 g ai/ha,100
same,Pre-emerge Herbicidal Activity CHEAL,[13]; 63 g ai/ha,100
same,Pre-emerge Herbicidal Activity CHEAL,[13]; 250 g ai/ha,100
same,Pre-emerge Herbicidal Activity DIGSA,[14]; 63 g ai/ha,90
same,Pre-emerge Herbicidal Activity DIGSA,[14]; 250 g ai/ha,100
same,Pre-emerge Herbicidal Activity ECHCG,[15]; 63 g ai/ha,60
same,Pre-emerge Herbicidal Activity ECHCG,[15]; 250 g ai/ha,90
same,Pre-emerge Herbicidal Activity SETVI,[16]; 63 g ai/ha,100
same,Pre-emerge Herbicidal Activity SETVI,[16]; 250 g ai/ha,100
same,Pre-emerge Herbicidal Activity SORHA,[17]; 63 g ai/ha,30
same,Pre-emerge Herbicidal Activity SORHA,[17]; 250 g ai/ha,80
same,Pre-emerge Herbicidal Activity IPOHE,[18]; 63 g ai/ha,60
same,Pre-emerge Herbicidal Activity IPOHE,[18]; 250 g ai/ha,100
same,Pre-emerge Herbicidal Activity ABUTH,[19]; 63 g ai/ha,100
same,Pre-emerge Herbicidal Activity ABUTH,[19]; 250 g ai/ha,100
same,Pre-emerge Herbicidal Activity CASOB,[20]; 63 g ai/ha,90
same,Pre-emerge Herbicidal Activity CASOB,[20]; 250 g ai/ha,95
same,Pre-emerge Herbicidal Activity CORN,[21]; 63 g ai/ha,30
same,Pre-emerge Herbicidal Activity CORN,[21]; 250 g ai/ha,70
same,Pre-emerge Herbicidal Activity RICE,[22]; 63 g ai/ha,90
same,Pre-emerge Herbicidal Activity RICE,[22]; 250 g ai/ha,90
